Read-outs that look alike come from different tables or passages of the source.
Assays:
rat brain A2a receptor = biological target: T1, rat brain A2a receptor (Rattus norvegicus, UniProt P30543); assay: Displacement of [^3 H]CGS 21680 binding at A2a receptors
T1 construct: A2 receptors from rat striatal membranes; from tissue; host or cells: rat striatal membranes
Description: Rat cerebral cortical and striatal membranes were prepared (Jacobson et al., J. Med. Chem., 35, 4143-4149 (1992)) and treated with ADA for 30 min at 37° C. prior to storage at -70° C.
The stock solutions were diluted with DMSO to a concentration of ≤0.1 mM prior to addition to the aqueous medium. The final concentration of DMSO in the assay medium was generally 2%.
At least six different concentrations spanning three orders of magnitude, adjusted appropriately for the IC50 of each compound, were used. […]. Pharmacol., 22, 3099-3108 (1973)).

rat brain A1 receptor = biological target: T2, rat brain A1 receptor (Rattus norvegicus, UniProt P25099); assay: Displacement of [^3 H]PIA binding at A1 receptors; conditions: for % Inhibition (A1): at 10^-4, rat brain
T2 construct: Rat cerebral cortical and striatal membranes were prepared; from tissue; host or cells: rat brain membranes (cerebral cortical)
T2 sequence (P25099 1-326): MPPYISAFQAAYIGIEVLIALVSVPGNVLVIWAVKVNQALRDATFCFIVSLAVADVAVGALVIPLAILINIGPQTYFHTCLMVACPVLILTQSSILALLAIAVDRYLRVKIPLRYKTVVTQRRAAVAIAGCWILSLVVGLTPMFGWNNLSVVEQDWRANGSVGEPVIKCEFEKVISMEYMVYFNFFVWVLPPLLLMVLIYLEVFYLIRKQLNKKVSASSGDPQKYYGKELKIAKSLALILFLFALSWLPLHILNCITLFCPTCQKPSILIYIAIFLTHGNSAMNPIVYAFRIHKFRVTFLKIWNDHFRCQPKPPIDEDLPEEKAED

[1] = biological target: T3, rat A3 adenosine receptors (Rattus norvegicus, UniProt P28647); assay: Inhibition of adenylate cyclase in CHO cells stably transfected with rat A3 adenosine receptors; type: cell-based; parameters: key to Effect on IB-MECA dose-resp. curve: no effect; conditions: for Ratio Conc./Ki (A3): test concentration divided by Ki (A3)
T3 construct: expressed in transfected cells; host or cells: CHO cells, stably transfected
T3 sequence (P28647 1-320): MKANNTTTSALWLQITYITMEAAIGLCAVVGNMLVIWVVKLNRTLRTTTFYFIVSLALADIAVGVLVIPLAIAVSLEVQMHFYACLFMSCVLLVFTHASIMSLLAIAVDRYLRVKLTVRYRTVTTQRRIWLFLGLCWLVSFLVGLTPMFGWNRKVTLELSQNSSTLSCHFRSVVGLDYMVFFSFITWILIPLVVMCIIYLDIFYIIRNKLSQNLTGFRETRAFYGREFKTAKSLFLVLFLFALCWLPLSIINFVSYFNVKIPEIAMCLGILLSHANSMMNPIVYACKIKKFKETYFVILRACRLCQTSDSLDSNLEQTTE

[2] = CHO, 1 μM forskolin, average ± S.E.M. for 2-3 determinations or a single value, read-out: % Inhib. (adenylate cyclase)
[3] = [^3 H]CGS 21680, rat brain membranes, Ki ± S.E.M., n = 3-6
[4] = [^3 H]PIA, rat brain membranes, Ki ± S.E.M., n = 3-6
[5] = at 10^-4, [^3 H]CGS 21680, rat brain

T1 sequence (P30543 whole entry): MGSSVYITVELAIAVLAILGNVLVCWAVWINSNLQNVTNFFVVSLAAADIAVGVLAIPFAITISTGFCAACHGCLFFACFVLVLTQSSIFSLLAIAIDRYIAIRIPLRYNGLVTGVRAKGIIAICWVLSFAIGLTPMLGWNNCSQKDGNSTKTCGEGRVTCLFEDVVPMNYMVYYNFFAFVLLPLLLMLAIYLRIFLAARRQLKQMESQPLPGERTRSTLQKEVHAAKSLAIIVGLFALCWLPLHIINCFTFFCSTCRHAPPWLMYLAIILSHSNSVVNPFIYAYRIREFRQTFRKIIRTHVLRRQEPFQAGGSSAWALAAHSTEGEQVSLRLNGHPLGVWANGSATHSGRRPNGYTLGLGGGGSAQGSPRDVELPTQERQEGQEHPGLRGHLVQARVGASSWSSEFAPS

Ki (rat brain A2a receptor; [3]) [µM] | Ki (rat brain A1 receptor; [4]) [µM] | Compound | also measured
18.7 ± 5.8 | 6.03 ± 1.37 | N#CCCCn1cnc2c(NCc3cccc(I)c3)ncnc21 [Compound 22, N^6-(3-Iodobenzyl)-9-(3-Cyanopropyl)adenine] | –
– | 6.69 ± 0.74 | CNC(=O)[C@@H]1C[C@H](N)[C@H](n2cnc3c(NCc4cccc(I)c4)nc(Cl)nc32)O1 [Compound 43, 2-Chloro-9-(2'-Amino-2',3'-dideoxy-β-D-5'-methyl-Arabinofuronamido)N^6-(3-Iodobenzyl)adenine] | % Inhibition (A2a) (rat brain A2a receptor; [5]): 2%
41.8 ± 12.5 | 19.1 ± 2.2 | OC[C@H](O)Cn1cnc2c(NCc3cccc(I)c3)ncnc21 [Compound 20, S--N^6-(3-Iodobenzyl)-9-(2,3-Dihydroxypropyl)adenine] | –
6.22 ± 2.71 | 8.61 ± 2.55 | CNC(=O)[C@H]1O[C@@H](n2cnc3c(NCc4ccco4)ncnc32)[C@H](O)[C@@H]1O [Compound 74, 1-(6-Furfurylamino-9H-Purin-9-yl)-1-Deoxy-N-Methyl-β-D-Ribofuranosiduronamide] | –
11.6 ± 4 | 0.84 ± 0.19 | Cn1cnc2c(NCc3cccc(I)c3)nc(Sc3ccncc3)nc21 [Compound 17, N^6-(3-Iodobenzyl)-9-Methyl-2-(4-Pyridylthio)adenine] | –
18.9 ± 1.9 | 13.8 ± 2.2 | OC[C@@H](O)Cn1cnc2c(NCc3cccc(I)c3)ncnc21 [Compound 19, R--N^6-(3-Iodobenzyl)-9-(2,3-Dihydroxypropyl)adenine] | –
41.9 ± 6.2 | 1.29 ± 0.08 | CNC(=O)[C@@H]1C[C@@H](OS(C)(=O)=O)[C@H](n2cnc3c(NCc4cccc(I)c4)nc(Cl)nc32)O1 [Compound 41, 2-Chloro-9-(3-Deoxy-2-Methanesulfonyl-β-D-5-Methyl-Ribofuronamido)-N^6-(3-Iodobenzyl)adenine] | –
15.1 ± 1.6 | 22.9 ± 3.7 | OCCn1cnc2c(NCc3cccc(I)c3)ncnc21 [Compound 18, N^6-(3-Iodobenzyl)-9-Hydroxyethyladenine] | –

The next lines start with the compound.

Compound | Ki (rat brain A2a receptor; [3]) [µM] | Ki (rat brain A1 receptor; [4]) [µM] | also measured
CCCCCCNc1nc(NCc2cccc(I)c2)c2ncn(C)c2n1 [Compound 14, 2-Hexylamino-N^6-(3-Iodobenzyl)-9-Methyladenine] | – | – | % Inhibition (A2a) (rat brain A2a receptor): 11 ± 4%; Ki (rat brain A1 receptor): 4.48 ± 0.82 µM
CNC(=O)[C@@H]1C[C@@H](O)[C@H](n2cnc3c(NCc4cccc(I)c4)nc(Cl)nc32)O1 [Compound 41b, 2-Chloro-9-(3-Deoxy-β-D-5-Methyl-Ribofuronamido)-N^6-(3-Iodobenzyl)adenine] | 4.66 ± 0.74 | 1.03 ± 0.15 | inhibition at 100 µM [1, 2]: 49.2 ± 3.7%; Ratio Conc./Ki (A3) [1]: 3000
CNC(=O)[C@H]1O[C@@H](n2cnc3c(NOc4ccccc4)ncnc32)[C@H](O)[C@@H]1O [Compound 71] | – | – | Ki (rat brain A2a receptor): 66.3 µM
CSc1nc(NCc2cccc(I)c2)c2ncn(C[C@@H](O)CO)c2n1 [Compound 19b, R-N^6-(3-Iodobenzyl)-9-(2,3-dihydroxypropyl)-2-methylthioadenine] | – | – | Effect on IB-MECA dose-resp. curve ([1]; 1 μM forskolin): c; inhibition at 40 µM ([1]; CHO, 40 μM, 1 μM forskolin, average ± S.E.M. for 2-3 determinations or a single value, read-out: % Inhib. (adenylate cyclase)): 7.4 ± 3.7%; Ratio Conc./Ki (A3) [1]: 4.6
CNC(=O)[C@H]1O[C@@H](n2cnc3c(NCc4cccc(I)c4)nc(Cl)nc32)[C@H](O)[C@@H]1O [2-chloro-N^6-(3-iodobenzyl)-adenosine-5'-N-methyluronamide, reference compound] | – | – | agonist efficacy in inhibition of adenylate cyclase ([1]; in words, via rat A3 receptors): full agonist; agonist potency in inhibition of adenylate cyclase ([1]; in words, vs. other agonists): greater than that of other agonists
CCCNc1nc(NCc2cccc(I)c2)c2ncn(C)c2n1 [Compound 13, N^6-(3 -Iodobenzyl)-9-Methyl-2-Propylaminoadenine] | – | – | Ki (rat brain A2a receptor): 1.72 ± 0.7 µM; Ki (rat brain A1 receptor): 0.33 ± 0.08 µM
CNC(=O)[C@H]1O[C@@H](n2cnc3c(NCc4cccc(NC(=O)CCNC(=O)OC(C)(C)C)c4)ncnc32)[C@H](O)[C@@H]1O [Compound 67, N^6-[3-(N-6-Boc-β-Alanylamino)Benzyl]Adenosine-5'-Methyluronamide] | – | – | Ki (rat brain A2a receptor): 1.96 µM
CNC(=O)[C@@H]1C[C@H](N=[N+]=[N-])[C@H](n2cnc3c(NCc4cccc(I)c4)nc(Cl)nc32)O1 [Compound 42, 2-Chloro-9-(2'-Azido-2',3'-Dideoxy-β-D-5'-Methyl-Arabinofuronamido)-N^6 (3-Iodobenzyladenine)] | 28.1 ± 3.2 | 0.401 ± 0.041 | inhibition at 100 µM [1, 2]: 27.8%; Ratio Conc./Ki (A3) [1]: 17
Cn1cnc2c(NCc3cccc(I)c3)ncnc21 [Compound 3, N^6-(3-Iodobenzyl)-9-Methyladenine] | 2.23 ± 1.33 | 5.73 ± 1.88 | –
CNC(=O)[C@H]1O[C@@H](n2cnc3c(NCc4cccc(NC(=O)[C@@H]5CCCN5)c4)ncnc32)[C@H](O)[C@@H]1O [Compound 65, N^6-[3-(L-Prolylamino)Benzyl]Adenosine-5'-N-Methyluronamide] | – | – | Ki (rat brain A2a receptor): 0.215 ± 0.054 µM
CNc1nc(NCc2cccc(I)c2)c2ncn([C@@H]3OC[C@@H](O)[C@H]3O)c2n1 [Compound 29, 9-(β-D-Erythrofuranoside)-2-Methylamino-N^6-(3-Iodobenzyl)adenine] | – | – | Ki (rat brain A2a receptor): 3.39 ± 0.29 µM; Ki (rat brain A1 receptor): 0.66 ± 0.01 µM
CNC(=O)[C@H]1O[C@@H](n2cnc3c(NCc4cccc(I)c4)nc(Cl)nc32)[C@H](OC(=O)c2ccccc2)[C@@H]1OC(=O)c1ccccc1 [2-Chloro-9-(2',3'-dibenzoyl-β-D-5-methyl-ribofuronamido)-N^6-(3-iodobenzyl)adenine] | – | – | % Inhibition (A2a) (rat brain A2a receptor): 7%; % Inhibition (A1) (rat brain A1 receptor; [^3 H]PIA): 21%
Cn1cnc2c(NCc3cccc(I)c3)nc(N)nc21 [Compound 9, 2-Amino-N^6-(3-iodobenzyl)-9-methyladenine] | 3.22 ± 1.52 | 5.57 ± 1.32 | –
9-(β-talosyl)adenine | 54.7 ± 3.1 | 150 ± 28 | –
CNC(=O)[C@H]1C[C@@H](n2cnc3c(NCc4cccc(I)c4)ncnc32)[C@H](O)[C@@H]1O (relative stereo) [Compound 61, (±)-9-[2α,3β-Dihydroxy-4β-(N-Methylcarbamoyl)Cyclopent-1β-yl)]-N^6-(3-Iodobenzyl)-adenine] | – | – | % Inhibition (A2a) (rat brain A2a receptor; [5]): 28 ± 5%
CNC(=O)[C@@H]1C[C@H](F)[C@H](n2cnc3c(NCc4cccc(I)c4)nc(Cl)nc32)O1 [Compound 44, 2-Chloro-9-(2',3'-Dideoxy-2'-Fluoro-β-D-5'-Methyl-Arabinofuronamido)-N^6-(3-Iodobenzyl)adenine] | – | – | inhibition at 100 µM [1, 2]: 11.2%; Ratio Conc./Ki (A3) [1]: 5.6
CNc1nc(NCc2cccc(I)c2)c2ncn(C)c2n1 [Compound 11, N^6-(3-Iodobenzyl)-2-Methylamino-9-Methyladenine] | 3.56 ± 0.84 | 0.648 ± 0.102 | –
Cn1cnc2c(NCc3cccc(I)c3)nc(NN)nc21 [Compound 10, 2-Hydrazido-N^6-(3-Iodobenzyl)-9-Methyladenine] | 19.6 ± 7.8 | 5.44 ± 0.05 | –
CNC(=O)[C@H]1O[C@@H](n2cnc3c(NNc4ccccc4)ncnc32)[C@H](O)[C@@H]1O [Compound 70, 6-(N'-phenylhydrazinyl)Purine-9-β-Ribofuranoside-5'-N-Methyluronamide] | – | – | Ki (rat brain A2a receptor): 7.16 µM
Clc1nc(NCc2cccc(I)c2)c2ncn(C3CCCO3)c2n1 (stereo not shown) [Compound 30, 2-Chloro-N-(3-Iodobenzyl)-9-(2-Tetrahydrofuryl)-9H-Purin-6-Amine] | – | – | Ki (rat brain A2a receptor): 4.12 ± 0.18 µM; Ki (rat brain A1 receptor): 0.174 ± 0.017 µM
CN(C)c1nc(NCc2cccc(I)c2)c2ncn(C)c2n1 [Compound 12, 2-Dimethylamino-N^6-(3-Iodobenzyl)-9-Methyladenine] | 9.89 ± 3.01 | 1.48 ± 0.12 | –
CNC(=O)[C@H]1O[C@@H](n2cnc3c(NCc4cccc(NC(=O)CCN)c4)ncnc32)[C@H](O)[C@@H]1O [Compound 66, N^6-[3(β-Alanylamino)Benzyl]Adenosine-5'-Methyluronamide] | – | – | Ki (rat brain A2a receptor): 0.144 ± 0.04 µM
O=C(O)Cn1cnc2c(NCc3cccc(I)c3)ncnc21 [Compound 21, N^6-(3-Iodobenzyladenin-9-yl)acetic Acid] | – | – | % Inhibition (A2a) (rat brain A2a receptor): 9%; % Inhibition (A1) (rat brain A1 receptor; [^3 H]PIA): 17%
COc1nc(NCc2cccc(I)c2)c2ncn(C)c2n1 [Compound 15, N^6-(3-Iodobenzyl)-2-Methoxy-9-Methyladenine] | 1.24 ± 0.11 | 0.5 ± 0.21 | –
Cn1cnc2c(NCc3cccc(I)c3)nc(Cl)nc21 [Compound 6, 2-Chloro-N^6-(3-Iodobenzyl)-9-Methyladenine] | 2.7 ± 0.56 | 0.45 ± 0.11 | –
2-Chloro-9-(β-arabinosyl)adenine | 90 ± 12.7 | 24.2 ± 7.9 | –

Reference: patent publication US5688774A (priority 1995, dated 1997)
